Square brackets hold non-standard residues; d marks the D form. Peptide text beside a SMILES is read from it. ξ: configuration not given here. Ile(3ξ) = CCC(C)[C@H](N)C(=O)O; Thr(3ξ) = CC(O)[C@H](N)C(=O)O; Nle = CCCC[C@H](N)C(=O)O
Test system: patients with SBS-IF
Test: Phase 2 placebo-controlled crossover trial in SBS-IF patients (Example 5): urine output, urine sodium, PS volume, oral fluid intake, hydration parameters, plasma L-citrulline, body composition
Type: in vivo, human
Description: The following non-limiting example describes results from a Phase 2 clinical trial in which subjects with SBS-IF were treated with the apraglutide formulations of the present disclosure. This Phase 2 trial investigated the safety and efficacy of 5 and 10 mg apraglutide in patients with SBS-IF.
Eight adult patients with SBS-IF were treated with apraglutide compositions of the present disclosure according to Table 6. Briefly, patients with SBS-IF were administered 5 mg apraglutide of the present disclosure or placebo once a week for four weeks. The patients were then administered 10 mg apraglutide of the present disclosure once a week for four weeks. Additionally, there was a washout period of 6-10 weeks between treatments.
The trial described in Example 5 was a double-blind, crossover, randomized, placebo-controlled, phase 2 trial followed by an additional treatment period in an open-label regimen. Eight adult patients (aged ≥18 to ≤80 years) with SBS-IF were enrolled in the trial. Patient eligibility was assessed during a screening visit. The main inclusion criteria were: Patients with SBS secondary to surgical resection of the small bowel with a jejuno- or ileostomy, at least 6 months since last bowel resection, a fecal output of at least 1500 g/day as recorded within the last 18 months, and PS-infusions≥3 times per week for ≥12 months according to the patient's medical record. Patients were excluded, if they had clinical signs of activity in inflammatory bowel disease, a history of cancer within ≤5 years or an inadequate hepatic, kidney, or heart function. Patients were also excluded, if they had received native GLP-2 or a GLP-2 analogue within the last 3 months.
The procedures during each treatment period were consistent.
Efficacy assessments were performed for each treatment period of 29 days. Patients received a paper diary for recording PS volume administration, urine collections and oral fluid intakes at specific time points. Patients performed home 48-hour urine collections at baseline (day −2 to 1), immediately after first treatment injection (day 1 to 3), and at the end of the treatment period (day 27-29, […] after the fourth administration of the trial drug). Urine was collected by the patient in a urine container with volume markings and 48-hour urine volumes were reported in the diary. After completing the 48-hour collection, patients transferred approximately 100 mL of urine from the container to a sample which was delivered at the next patient visit. The amount of sodium excreted per 48 hours was then calculated as the concentration of sodium in the sample multiplied by the total volume of urine collected. During each urine collection, weekly PS volume and content and daily oral fluid intake were kept constant. Since they were kept constant, increases in urine volume were a sign of increased fluid absorption. […] Patients were to adhere to their drinking menu during each urine collection and the concomitant 48-hour oral fluid intake was reported in the diary during each urine collection.
On day 20-22, patients were informed to record their spontaneous oral fluid intake during 48 hours. This measurement was included to investigate whether increased intestinal absorption was associated with a decrease in their spontaneous oral fluid intake.
Between day 4 and 24, PS volume reductions were allowed if deemed clinically necessary by the investigator. […] PS volume reductions were assessed during day 20-22. Patients returned to their baseline PS volume and content during the end of the treatment urine collection (day 27-29). Concomitant medications including proton-pump inhibitors, loperamide, and opiates were kept unchanged and stable throughout the trial. If necessary, adjustments could be made in the drinking menu and prescribed PS volume and content between treatment periods based on discussions between the patient and the investigator.
Body weight was measured using a levelled platform scale. […]

[1] = 5 mg vs 10 mg, Part A+B, day 1-3 after first injection
[2] = 5 mg vs 10 mg, Part A+B, day 20-22
[3] = 5 mg vs 10 mg, Part A+B, day 27-29
[4] = 5 mg vs 10 mg, Part A+B, end of treatment
[5] = 5 mg vs placebo, Part A+B, day 1-3 after first injection
[6] = 5 mg vs placebo, Part A+B, day 20-22
[7] = 5 mg vs placebo, Part A+B, day 27-29
[8] = 5 mg vs placebo, Part A+B, day 27-29, listed as Apraglutide
[9] = 5 mg vs placebo, Part A+B, end of treatment

CCCC[C@H](NC(=O)[C@H](CCC(=O)O)NC(=O)[C@H](CC(=O)O)NC(=O)[C@H](CO)NC(=O)[C@H](Cc1ccccc1)NC(=O)[C@H](CO)NC(=O)CNC(=O)[C@H](CC(=O)O)NC(=O)CNC(=O)[C@@H](N)Cc1c[nH]cn1)C(=O)N[C@H](Cc1ccccc1)C(=O)N[C@H](C(=O)N[C@H](C(=O)N[C@@H](CC(C)C)C(=O)N[C@@H](CC(=O)O)C(=O)N[C@@H](CC(C)C)C(=O)N[C@@H](CC(C)C)C(=O)N[C@@H](C)C(=O)N[C@@H](C)C(=O)N[C@@H](CCCNC(=N)N)C(=O)N[C@@H](CC(=O)O)C(=O)N[C@@H](Cc1ccccc1)C(=O)N[C@H](C(=O)N[C@@H](CC(N)=O)C(=O)N[C@@H](Cc1c[nH]c2ccccc12)C(=O)N[C@@H](CC(C)C)C(=O)N[C@H](C(=O)N[C@@H](CCC(N)=O)C(=O)N[C@H](C(=O)N[C@@H](CCCCN)C(=O)N[C@H](C(=O)N[C@H](C(=O)N[C@@H](CC(=O)O)C(N)=O)C(C)O)C(C)CC)C(C)O)C(C)CC)C(C)CC)C(C)CC)C(C)O (stereo partly drawn) [apraglutide, L-histidyl-glycyl-L-aspartyl-glycyl-L-seryl-L-phenylalanyl-L-seryl-L-aspartyl-L-glutamyl-L-norleucyl-D-phenylalanyl-L-threonyl-Lisoleucyl-L-leucyl-L-aspartyl-L-leucyl-L-leucyl-L-alanyl-L-alanyl-L-arginyl-L-aspartyl-L-phenylalanyl-L-isoleucyl-L-asparaginyl-Ltryptophanyl-L-leucyl-L-isoleucyl-L-glutaminyl-L-threonyl-L-lysyl-L-isoleucyl-L-threonyl-Laspartic acid amide] (H-HGDGSFSDE[Nle][dF][Thr(3ξ)][Ile(3ξ)]LDLLAARDF[Ile(3ξ)]NWL[Ile(3ξ)]Q[Thr(3ξ)]K[Ile(3ξ)][Thr(3ξ)]D-NH2)
Patients with increased relative urine volume output compared to placebo (exceeding 10%) (5 mg): 6 out of 8 | Absolute urine output, adjusted mean change from baseline [1]: −26 (−462 to 409); mL/day | Relative urine output, adjusted mean change from baseline [1]: −12 (−43 to 19); % | Urine sodium excretion (%), adjusted mean change from baseline [1]: −43(−149 to 63); % | Urine sodium excretion, adjusted mean change from baseline [1]: −1 (−22 to 20); mmol/day | Oral fluid intake, adjusted mean change from baseline [2]: −119 (−396 to 157); mL/day | PS volume, adjusted mean change from baseline [2]: −380 (−851 to 91); mL/day | Relative PS volume, adjusted mean change from baseline [2]: −15 (−38 to 9); % | Relative oral fluid intake, adjusted mean change from baseline [2]: −7 (−17 to 3); % | Absolute urine output, adjusted mean change from baseline [3]: 84 (−514 to 682); mL/day | Relative urine output, adjusted mean change from baseline [3]: −14 (−51 to 23); % | Urine sodium excretion (%), adjusted mean change from baseline [3]: 266 (−266 to 798); % | Urine sodium excretion, adjusted mean change from baseline [3]: 32 (−37 to 101); mmol/day | Albumin, adjusted mean change from baseline [4]: 1.0 (−0.8 to 2.9); g/L | Aldosterone, adjusted mean change from baseline [4]: −151 (−3,570 to 3,268); pmol/L | Body weight, adjusted mean change from baseline [4]: −0.6 (−2.4 to 1.3); kg | Bone mineral content, adjusted mean change from baseline [4]: 12 (−57 to 82); g | CO2 total, adjusted mean change from baseline [4]: 1.0 (−1.4 to 3.4); mmol/L | Creatinine, adjusted mean change from baseline [4]: 4.6 (−12.3 to 21.5); umol/L | Fat body mass, adjusted mean change from baseline [4]: −1.44 (−2.92 to 0.04); kg | Hematocrit, adjusted mean change from baseline [4]: −0.4 (−1.2 to 0.4); vol/fr | Lean body mass, adjusted mean change from baseline [4]: 0.12 (−3.00 to 3.24); kg | Plasma L-citrulline, adjusted mean change from baseline [4]: −3.6 (−19.8 to 12.6); μmol/L | Protein, adjusted mean change from baseline [4]: −0.3 (−4.5 to 3.9); g/L | Relative body weight, adjusted mean change from baseline [4]: −1 (−4 to 2); % | Relative bone mineral content, adjusted mean change from baseline [4]: 0 (−3 to 3); % | Relative fat body mass, adjusted mean change from baseline [4]: −7 (−16 to 1); % | Relative lean body mass, adjusted mean change from baseline [4]: −0 (−8 to 7); % | Relative plasma L-citrulline, adjusted mean change from baseline [4]: −23 (−74 to 29); % | Urea, adjusted mean change from baseline [4]: 0.3 (−1.3 to 1.9); mmol/L | Fluid composite effect, estimated difference between the two doses (5 mg vs 10 mg, post-hoc, Part A+B): 594 | Absolute urine output, adjusted mean change from baseline [5]: −38 (−456 to 381); mL/day | Relative urine output, adjusted mean change from baseline [5]: 6 (−24 to 35); % | Urine sodium excretion (%), adjusted mean change from baseline [5]: 65 ( −36 to 166); % | Urine sodium excretion, adjusted mean change from baseline [5]: 3 (−17 to 23); mmol/day | PS volume, adjusted mean change from baseline [6]: −89 (−543 to 366); mL/day | Relative PS volume, adjusted mean change from baseline [6]: −13 (−36 to 9); % | Relative oral fluid intake, adjusted mean change from baseline [6]: −9 (−18 to 1); % | Absolute urine output, adjusted mean change from baseline [7]: 711 (132 to 1,289); mL/day | Relative urine output, adjusted mean change from baseline [7]: 48 (12 to 84); % | Urine sodium excretion (%), adjusted mean change from baseline [7]: 166 (−342 to 675); % | Urine sodium excretion, adjusted mean change from baseline [7]: 56 (−10 to 123); mmol/day | Absolute urine output, adjusted mean change from baseline [8]: 711 mL/day | Relative urine output, adjusted mean change from baseline [8]: 48% | Urine sodium excretion, adjusted mean change from baseline [8]: 56 mmol/day | Albumin, adjusted mean change from baseline [9]: −0.0 (−1.8 to 1.8); g/L | Body weight, adjusted mean change from baseline [9]: 1.9 (0.1 to 3.7); kg | Bone mineral content, adjusted mean change from baseline [9]: −4 (−73 to 66); g | CO2 total, adjusted mean change from baseline [9]: 0.3 (−2.0 to 2.6); mmol/L | Creatinine, adjusted mean change from baseline [9]: −9.7(−25.8 to 6.4); umol/L | Fat body mass, adjusted mean change from baseline [9]: 1.77 (0.29 to 3.24); kg | Hematocrit, adjusted mean change from baseline [9]: 0.6 (−0.2 to1.4); vol/fr | Lean body mass, adjusted mean change from baseline [9]: 0.64 (−2.49 to 3.77); kg | Plasma L-citrulline, adjusted mean change from baseline [9]: 17.6 (2.0 to 33.2); μmol/L | Protein, adjusted mean change from baseline [9]: −0.4 (−4.2 to 3.4); g/L

Reference: patent US11766470B2, “Manufacture, formulation and dosing of apraglutide” (VectivBio AG, priority 2020, dated 2023)
